Test results: US20140343014A1, “COMBINATION OF A CERTAIN DPP-4 INHIBITOR AND VOGLIBOSE” (BOEHRINGER INGELHEIM INTERNATIONAL GMBH, priority 2013, published 2014)
“Also recorded” adds a separate entry of the source.

Test: Pharmacokinetics of BI 1356 in patients with type 2 diabetes, multiple oral doses once daily for 12 days
Conditions: therapeutic oral dose levels; listed as BI 1356

## CC#CCn1c(N2CCC[C@@H](N)C2)nc2c1c(=O)n(Cc1nc(C)c3ccccc3n1)c(=O)n2C [linagliptin]
  route of excretion: mainly excreted via the liver; also recorded: primarily excreted unchanged via the bile
